These results are taken from patent US7417045B2, “Heterocyclic substituted pyridine or phenyl compounds with CXCR3 antagonist activity” (Schering Corporation, priority 2005, dated 2008).

One may read the IC50 as the midpoint of a concentration-inhibition curve.

This assay addresses T1, human CXCR3 (N-delta 4) (Homo sapiens, UniProt P49682).
T1 construct: CD8 leader (N); Flag tag; expressed in transfected cells; membranes
T1 sequence (P49682 5-368 limits assumed): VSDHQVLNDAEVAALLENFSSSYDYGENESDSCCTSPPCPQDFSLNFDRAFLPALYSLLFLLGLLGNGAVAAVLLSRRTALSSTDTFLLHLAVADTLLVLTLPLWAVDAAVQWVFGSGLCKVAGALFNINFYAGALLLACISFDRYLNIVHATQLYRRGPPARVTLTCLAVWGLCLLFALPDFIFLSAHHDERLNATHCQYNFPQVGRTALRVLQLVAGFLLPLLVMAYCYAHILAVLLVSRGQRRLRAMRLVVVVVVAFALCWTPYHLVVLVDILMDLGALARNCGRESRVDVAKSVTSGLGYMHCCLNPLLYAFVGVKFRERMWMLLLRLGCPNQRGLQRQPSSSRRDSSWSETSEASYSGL
Put plainly: Human CXCR3 (N-delta 4) Scintillation Proximity Assay (SPA), [125I] IP-10 binding. As to conditions: IC50 rating; [125I] IP-10 displacement, Ba/F3-hCXCR3 (N-delta 4) membranes. The text has this: The inventive compounds can readily be evaluated to determine activity at The CXCR3 receptors by known methods, such as, for example, Development of Human CXCR3 (N-delta 4) Binding Assay.
Cloning and Expression of Human CXCR3 (N-Delta 4):
The DNA encoding human CXCR3 was cloned by PCR using human genomic DNA (Promega, Madison, Wis.) as a template. The PCR primers were designed based on the published sequence of human orphan receptor GPR9 (1) with incorporated restriction sites, a Kozak consensus sequence, CD8 leader and Flag tag. The PCR product was subcloned into the mammalian expression vector pME18Sneo, a derivative of the SR-alpha expression vector (designated as pME18Sneo-hCXCR3 (N-delta 4).
IL-3-dependent mouse pro-B cells Ba/F3 were transfected by electroporation in 0.4 ml Dulbecco's PBS containing 4×10^6 cells with 20 μg of pME18Sneo-hCXCR3 (N-delta 4) plasmid DNA. Cells were pulsed at 400 Volts, 100 OHMs, 960 μFd. The transfected cells were under selection with 1 mg/ml G418 (Life Technologies, Gaithersburg, Md.). G418-resistant Ba/F3 clones were screened for CXCR3 expression by specific binding of [^125I] IP-10 (NEN Life Science Products, Boston, Mass.).
Preparation of Ba/F3-hCXCR3 (N-Delta 4) Membranes
Ba/F3 cells expressing human CXCR3 (N-delta 4) were pelleted and resuspended in the lysis buffer containing 10 mM HEPES, pH 7.5 and Complete® protease inhibitors (1 tablet per 100 ml) (Boehringer Mannheim, Indianapolis, Ind.) at a cell density of 20×10^6 cells per ml. After 5 minutes incubation on ice, cells were transferred to 4639 cell disruption bomb (Parr Instrument, Moline, Ill.) and applied with 1,500 psi of nitrogen for 30 minutes on ice. Large cellular debris was removed by centrifugation at 1,000× g. Cell membrane in the supernatant was sedimented at 100,000× g. The membrane was resuspended in the lysis buffer supplemented with 10% sucrose and stored at −80° C. Total protein concentration of the membrane was determined by BCA method from Pierce (Rockford, Ill.).
Human CXCR3 (N-Delta 4) Scintillation Proximity Assay (SPA)
For each assay point, 2 μg of membrane was preincubated for 1 hr with 300 μg wheat germ agglutinin (WGA) coated SPA beads (Amersham, Arlington Heights, Ill.) in the binding buffer (50 mM HEPES, 1 mM CaCl2, 5 mM MgCl2, 125 mM NaCl, 0.002% NaN3, 1.0% BSA) at room temperature. The beads were spun down, washed once, resuspended in the binding buffer and transferred to a 96-well Isoplate (Wallac, Gaithersburg, Md.). 25 pM of [^125I] IP-10 with tested compounds in a series of titration were added to start the reaction. After 3 hr reaction at room temperature, the amount of [^125I] IP-10 bound to the SPA beads was determined with a Wallac 1450 Microbeta counter.
`CC[C@H]1CN(c2ncc(-c3ncc[nH]3)cc2Cl)CCN1C1CCN(C(CO)c2ccc(Cl)cc2)CC1` (stereo partly shown) [Compound 18]: the 50% inhibitory concentration (IC50) was less than 25 nM.

Turning to `CC[C@H]1CN(c2ncc(-c3ncc[nH]3)cc2Cl)CCN1C1CCN(Cc2ccc(C(=O)O)cc2)CC1` [Compound 162], the IC50 is more than 100 nM.

Regarding `CC[C@H]1CN(c2ncc(-c3noc(=O)[nH]3)cc2Cl)CCN1C1CCN(Cc2ccc(Cl)cc2F)CC1` [Compound 160], the IC50 was more than 100 nM.

Compound `CC[C@H]1CN(c2ncc(-c3ncc[nH]3)cc2Cl)CCN1C1CCN(C(=O)c2ccc(-n3ccc(C(F)(F)F)n3)cc2)CC1` [Compound 157] gave an IC50 of more than 100 nM.

In turn, `CC[C@H]1CN(c2ncc(C3=NC(C)(C)CN3)cc2Cl)CCN1C1CCN(C(=O)c2ccc(Cl)cc2)CC1` [Compound 105] came in with an IC50 of 25 to 100 nM.

On to `CC[C@H]1CN(c2ncc(-c3ncc[nH]3)cc2Cl)CCN1C1CCN(C(C(=O)Nc2ccccn2)c2ccc(Cl)cc2)CC1` (stereo partly shown) [Compound 116], for which the IC50 was 25 to 100 nM.

For `CC[C@H]1CN(c2ncc(-c3ncc[nH]3)cc2Cl)CCN1C1CCN(C(=O)c2ccc(C#N)nc2)CC1` [Compound 68], the half-inhibitory concentration (IC50) was less than 25 nM.

In turn, `CC[C@H]1CN(c2ncc(-c3cncn3C)cc2Cl)CCN1C1CCN(Cc2ccc(Cl)cc2)CC1` [Compound 115] yielded an IC50 of 25 to 100 nM.

In turn, `CC[C@H]1CN(c2ncc(-c3ncc[nH]3)cc2Cl)CCN1C1CCN(C(C)c2ccc(N3CCOCC3)cc2)CC1` (stereo partly shown) [Compound 139] displayed an IC50 of more than 100 nM.

For the compound `CC[C@H]1CN(c2ncc(-c3ncc[nH]3)cc2Cl)CCN1C1CCN(Cc2ccc(OC(F)(F)F)cc2)CC1` [Compound 13], the half-maximal inhibitory concentration (IC50) was less than 25 nM.

`CC[C@H]1CN(c2ncc(-c3ncc[nH]3)cc2Cl)CCN1C1CCN(Cc2ccc(C#CCOC)cc2)CC1` [Compound 14] displayed an IC50 of less than 25 nM.

In turn, `CC[C@H]1CN(c2ncc(C3=NCCN3)cc2Cl)CCN1C1CCN(Cc2ccc(Cl)cc2C#N)CC1` [Compound 51] had an IC50 of less than 25 nM.

As for `CC[C@H]1CN(c2ncc(-c3ncc[nH]3)cc2Cl)CCN1C1CCN(Cc2ccc(Cl)cc2/C(N)=N/O)CC1` [Compound 6], the IC50 was less than 25 nM.

Compound `CC[C@H]1CN(c2ncc(-c3ncc[nH]3)cc2Cl)CCN1C1CCN([C@@H](C)c2ccc(Cl)cc2)CC1` [Compound 30] registered an IC50 of less than 25 nM.

`CC[C@H]1CN(c2ncc(-c3nccn3C(c3ccccc3)(c3ccccc3)c3ccccc3)cc2Cl)CCN1C1CCN(Cc2ccc(Cl)cc2F)CC1` [Compound 145]: the IC50 was more than 100 nM.

`CC[C@H]1CN(c2ncc(-c3nnc(CO)o3)cc2Cl)CCN1C1CCN(C(C(=O)OC)c2ccc(Cl)cc2)CC1` (stereo partly shown) [Compound 124] yielded an IC50 of 25 to 100 nM.

In turn, `CC[C@H]1CN(c2ncc(-c3nc4cc(F)ccc4[nH]3)cc2Cl)CCN1C1CCN(Cc2ccc(Cl)cc2F)CC1` [Compound 96] returned an IC50 of less than 25 nM.

`CC[C@H]1CN(c2ncc(-c3ncc[nH]3)cc2Cl)CCN1C1CCN(Cc2ccc(C#CC(C)(C)NS(N)(=O)=O)cc2)CC1` [Compound 114] had an IC50 of 25 to 100 nM.

The compound `CC[C@H]1CN(c2ccc(-c3ncc[nH]3)cc2Br)CCN1C1CCN(Cc2ccc(Cl)cc2F)CC1` [Compound 20] had an IC50 of less than 25 nM.

The compound `CC[C@H]1CN(c2ncc(-c3ncc[nH]3)cc2Cl)CCN1C1CCN([C@H](C(=O)NC2CC2)c2ccc(Cl)cc2)CC1` [Compound 149] showed an IC50 of more than 100 nM.

On to `CC[C@H]1CN(c2ncc(-c3ncc[nH]3)cc2Cl)CCN1C1CCN(C(C)c2ccc(Cl)cc2)CC1` (stereo partly shown) [Compound 8], for which the IC50 is less than 25 nM.

For the compound `CC[C@H]1CN(c2ncc(-c3ncc[nH]3)cc2Cl)CCN1C1CCN(C(=O)c2ccc(-c3csnn3)cc2)CC1` [Compound 109], the IC50 was 25 to 100 nM.

`CC[C@H]1CN(c2ncc(-c3ncc[nH]3)cc2Cl)CCN1C1CCN(C(=O)c2ccc(N3CCCC3=O)cc2)CC1` [Compound 173] displayed an IC50 of more than 100 nM.

Compound `CC[C@H]1CN(c2ncc(C3=NCCN3)cc2Cl)CCN1C1CCN(Cc2ccc(C3CC3C(C)(C)O)cc2)CC1` (stereo partly shown) [Compound 152] came in with an IC50 of more than 100 nM.

Turning to `CC[C@H]1CN(c2ncc(-c3nccn3C)cc2Cl)CCN1C1CCN(Cc2ccc(Cl)cc2F)CC1` [Compound 122], the IC50 was in the range of 25 to 100 nM.

`CC[C@H]1CN(c2ncc(-c3ncc[nH]3)cc2Cl)CCN1C1CCN(C(=O)c2ccc(Cl)cc2N)CC1` [Compound 32] displayed an IC50 of less than 25 nM.

In the case of `CC[C@H]1CN(c2ncc(C3=NCCN3)cc2Cl)CCN1C1CCN([C@@H](CO)c2ccc(Cl)cc2)CC1` [Compound 7], the IC50 was less than 25 nM.

As to `CC[C@H]1CN(c2ncc(-c3ncc[nH]3)cc2Cl)CCN1C1CCN(C(=O)c2ccc(Cl)cc2C#N)CC1` [Compound 62], the half-inhibitory concentration (IC50) was less than 25 nM.

As to `CC[C@H]1CN(c2ncc(-c3ncc[nH]3)cc2Cl)CCN1C1(C)CCN(C(CO)c2ccc(Cl)cc2)CC1` (stereo partly shown) [Compound 38], the IC50 was less than 25 nM.

`CC[C@H]1CN(c2ncc(-c3ncco3)cc2Cl)CCN1C1CCN(Cc2ccc(Cl)cc2F)CC1` [Compound 140] displayed an IC50 of more than 100 nM.

`CCNc1nnc(-c2cnc(N3CCN(C4CCN(C(=O)c5ccc(Cl)nc5N)CC4)[C@@H](CC)C3)c(Cl)c2)o1` [Compound 73] came in with an IC50 of less than 25 nM.

`CC[C@H]1CN(c2ncc(-c3ncc[nH]3)cc2Cl)CCN1C1CCN(Cc2ccc(C(=O)OC)cc2)CC1` [Compound 16] yielded an IC50 of less than 25 nM.

Compound `CC[C@H]1CN(c2ncc(-c3ncc[nH]3)cc2Cl)CCN1C1CCN(C(=O)c2ccc(-c3ccccc3)cc2)CC1` [Compound 132] returned an IC50 of more than 100 nM.

Compound `CC[C@H]1CN(c2ncc(C3NC(=O)NC3=O)cc2Cl)CCN1C1CCN(Cc2ccc(Cl)cc2)CC1` (stereo partly shown) [Compound 119] returned an IC50 of 25 to 100 nM.

As to `CC[C@H]1CN(c2ncc(C3=NCCN3)cc2Cl)CCN1C1CCN(Cc2ccc(F)cc2)CC1` [Compound 11], the IC50 is less than 25 nM.

Compound `CC[C@H]1CN(c2ncc(-c3ncc[nH]3)cc2Cl)CCN1C1CCN(Cc2ccc(Cl)cc2-c2ncon2)CC1` [Compound 48] showed an IC50 of less than 25 nM.

Compound `CC[C@H]1CN(c2ncc(-c3ncc[nH]3)cc2Cl)CCN1C1CCN([C@@H](C(=O)OC)c2ccc(Br)cc2)CC1` [Compound 40] displayed an IC50 of less than 25 nM.

As for `CC[C@H]1CN(c2ncc(C3=NCCN3)cc2Cl)CCN1C1CCN(Cc2ccc(C#N)cc2)CC1` [Compound 29], the IC50 is less than 25 nM.

As to `CC[C@H]1CN(c2ncc(-c3ncc[nH]3)cc2Cl)CCN1C1CCN([C@@H](C(=O)N(C)C)c2ccc(Cl)cc2)CC1` [Compound 97], the IC50 is less than 25 nM.

In turn, `CC[C@H]1CN(c2ncc(-c3ncc[nH]3)cc2Cl)CCN1C1CCN(C(=O)c2ccc(-n3ccnc3)cc2)CC1` [Compound 156] came in with a half-maximal inhibitory concentration (IC50) of more than 100 nM.

As to `CCOC(=O)C1CC1c1ccc(CN2CCC(N3CCN(c4ncc(C5=NCCN5)cc4Cl)C[C@@H]3CC)CC2)cc1` (stereo partly shown) [Compound 75], the IC50 was less than 25 nM.

Compound `CC[C@H]1CN(c2ncc(C3=NCCN3)cc2Cl)CCN1C1CCN(C(=O)c2ccc(Cl)cc2I)CC1` [Compound 85] showed an IC50 of less than 25 nM.

Regarding `CC[C@H]1CN(c2ncc(-c3ncc[nH]3)cc2Cl)CCN1C1CCN(C(=O)c2ccc(-c3cnco3)cc2)CC1` [Compound 117], the half-maximal inhibitory concentration (IC50) lay in the range of 25 to 100 nM.

`CC[C@H]1CN(c2ncc(-c3ncc[nH]3)cc2Cl)CCN1C1CCN([C@H](C(=O)OC)c2ccc(Cl)cc2)CC1` [Compound 133] had an IC50 of more than 100 nM.

`Fc1cc(Cl)ccc1CN1CCC(N2CCN(c3ncc(-c4ncc[nH]4)cc3Cl)CC2C2CC2)CC1` (stereo not shown) [Compound 77] gave an IC50 of less than 25 nM.

`CC[C@H]1CN(c2ncc(-c3ncc[nH]3)cc2Cl)CCN1C1CCN(CCCC(=O)c2ccc(Cl)cc2)CC1` [Compound 83] gave an IC50 of less than 25 nM.
